One assay deals with CD25. The assay can be described thus: CD25 expression by PMA/IOM-stimulated PBMC from asthma patients, flow cytometry. The class given is cell-based, human. On the procedure: (§1) Venous blood was collected in polyethylene tubes containing EDTA between 9 and 10 a.m. PBMC were separated by Ficoll-paque (Pharmacia, Uppsala, Sweden) density gradient centrifugation. Cells were washed and suspended in AIM-V medium (Gibco BRL, Gaithersburg, Md.) at density of 2×10^6 cells/ml. PBMC were stimulated with 20 nM phorbol 12-myristate 13-acetate (PMA) and 1 μM ionomycin (IOM) (ICN Pharmaceuticals, Inc. CA, USA). The cells were harvested 24 hours later and supernatants were frozen at −70° C. until use. […] For BN52021, a range between 1×10^−9 and 1×10^−4 M was used.
(§2) Two-color flow cytometry was conducted using a Coulter Epics Profile II flow cytometer (Coulter Scientific, Hialeah, Fla., USA). Isotypic controls for the monoclonal antibodies (mAb) used to detect antigens of interest were established for each cell preparation. Positive analysis regions for cells expressing specific surface antigens were set against isotypic controls and specific binding of fluorophore-conjugated mAb was analyzed by cytofluorography according to standard methods. Lymphocyte subpopulations were identified by position on forward and side scatter plots and live-gated. Isotype matched antibodies were utilized to control for nonspecific fluorescence. […] Background values for antibodies used in assays were based on fluorescence of non-specific antibodies. […]
For orientation: A flow cytometer gives signals particle by particle.

A further assay concerns IL-4. The assay can be described thus: IL-4 expression by PMA/IOM-stimulated PBMC from asthma patients, ELISA. The assay is classed as cell-based, human. On the procedure:
as §1
(§3) Cytokine expression (IL-4 and IL5) was evaluated in culture supernatants by enzyme-linked immunoabsorption assay (Amersham North America, Illinois, USA). The detection range was 10-400 pg/ml and 7.8-500 pg/ml respectively. Colorimetric changes proportional to supernatant cytokine concentration were measured using a model 2550 EIA reader (Bio-Rad Laboratories, Hercules Calif. USA). All assays were performed in duplicate.
(§4) The data shown Table 2 was obtained using cultures of 2×10^6 human PBMC, which were isolated from venous blood and stimulated 24 hours with media, 20 nM PMA+1.0 μM ionomycin (PMA/I), 1.0 μM cyclosporine A+PMA/IOM, or 1 μM ginkgolide BN52021+PMA. Expression of interleukins 4 and 5 were measured in PBMC culture supernatents by antibody capture ELISA. […]

For a further assay, the system named is CD54. Kind of assay: CD54 expression by PMA/IOM-stimulated PBMC from asthma patients, flow cytometry. The assay is classed as cell-based, human. On the procedure: as §1, §2
The test system of assay [1] is lymphocyte activation markers. Kind of assay: Dose range of BN52021 on lymphocyte activation markers in PBMC from asthma patients. The class given is cell-based, human. The settings on record: 1×10^−5 and 1×10^−7 M, 3 of the patients tested. On the procedure: as §1, §2
The subject of the next assay is CD45RA. Kind of assay: CD45RA expression by PMA/IOM-stimulated PBMC from asthma patients, flow cytometry. The assay is classed as cell-based, human. The protocol:
as §1, §2

In assay [2] the target is platelet activating factor receptor (PAFR) (Homo sapiens, UniProt P25105). Conditions: cited from earlier work.
A further assay concerns IL-5. Kind of assay: IL-5 expression by PMA/IOM-stimulated PBMC from asthma patients, ELISA. The class given is cell-based, human. On the procedure:
as §1, §3, §4
Background: In an ELISA, binding on a coated surface is turned into a signal by an enzyme label.

Assay [3] relates to cAMP-specific phosphodiesterase. The settings on record: cited from earlier work.
The next assay relates to HLA-DR. Kind of assay: HLA-DR expression by PMA/IOM-stimulated PBMC from asthma patients, flow cytometry. The assay is classed as cell-based, human. On the procedure: as §1, §2
Where [4] appears, read: 1 μM, PMA/IOM-stimulated cultures.
Where [5] appears, read: PMA + IOM + 1 μM compound, 24 hours, ±SE.

The source of these data is patent publication US20040091477A1, “Immunosuppresive compositions” (priority 2003, published 2004).

Read-outs that look alike come from different tables or passages of the source.

platelet activating factor receptor (PAFR), sequence (P25105 whole entry, species assumed): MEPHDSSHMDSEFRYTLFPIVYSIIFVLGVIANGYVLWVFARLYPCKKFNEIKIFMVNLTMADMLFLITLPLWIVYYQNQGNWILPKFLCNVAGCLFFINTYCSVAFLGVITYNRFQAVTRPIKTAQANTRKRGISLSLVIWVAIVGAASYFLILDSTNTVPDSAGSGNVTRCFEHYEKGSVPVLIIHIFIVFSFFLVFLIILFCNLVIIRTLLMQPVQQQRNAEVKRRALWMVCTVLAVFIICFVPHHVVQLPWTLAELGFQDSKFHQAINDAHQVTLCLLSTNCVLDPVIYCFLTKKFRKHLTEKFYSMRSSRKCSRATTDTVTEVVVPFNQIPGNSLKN

With `C[C@@H]1C(=O)O[C@H]2[C@@H](O)[C@@]34[C@H]5C[C@@H](C(C)(C)C)[C@]36[C@@H](OC(=O)[C@@H]6O)O[C@@]4(C(=O)O5)[C@@]12O` [BN52021, Ginkgolide B], the “effect on CD25 expression (in words)” value with CD25 (setting [4]) is reported as “unaffected”. Also, the “% CD25” value in the assay on CD25 (setting [5]) turned out to be 7.1 ± 2.0%. Besides, in the assay on IL-4 (setting [4]), the “effect on IL-4 expression (in words)” value is reported as “no statistically significant effect”. Further, in the assay with IL-4 (setting [5]), the “IL-4 in culture supernatant” value came out at 81.7 ± 28.1 pg/mL. The “effect on CD54 expression (in words)” value with CD54 (setting [4]) is “unaffected”. In addition, the “% CD54” value in the assay on CD54 (setting [5]) is on record as 27.4 ± 6.9%. Further, in assay [1], the “change in lymphocyte activation markers (in words)” value was “No change occurred in lymphocyte activation markers”. The “effect on CD45RA expression (in words)” value with CD45RA (setting [4]) is recorded as “decreased significantly”. In addition, the “% CD45RA” value in the assay on CD45RA (setting [5]) is on record as 48.8 ± 9.5 %. Moreover, the “PAFR antagonist activity (in words)” value is “PAFR antagonist activity” in [2] and “PAFR antagonist” in assay [2] (listed as Ginkgolide B). Also, in the assay on IL-5 (setting [4]), the “effect on IL-5 expression (in words)” value is given as “no statistically significant effect”. The “IL-5 in culture supernatant” value in the assay on IL-5 (setting [5]) was 374 ± 105 pg/mL. For the same molecule, the “cAMP phosphodiesterase inhibitory activity (in words)” value in assay [3] is listed as “does not possess cAMP phophodiesterase activity”. Besides, in the assay on HLA-DR (setting [4]), the “effect on HLA-DR expression (in words)” value is recorded as “a trend towards the reduction”. The “% HLA-DR” value in the assay on HLA-DR (setting [5]) was 21.2 ± 5.3¶ %.
